# What was measured:
# glioblastoma cells = assay: Glucose deprivation-induced apoptosis markers (cleaved PARP-1, caspase-3) by Western blotting; assay type: cell-based, human; conditions: 1 nM; Day 3 and 4
# Description: . The resultant cell lysates were size-fractionated on SDS-PAGE and Western blotting with antibodies specific for Cleaved […] (Asp214) and caspase-3 (Asp175). The protein bands were quantified by densitometric scanning. […] . Data are mean±S.E.M. of ratios (FIG. 3B) and % inhibition (FIG. 3C). […] N=5. *p<0.01 compared to Day 0. #p<0.01 compared to vehicle (open bars).
# . The cells were washed with PBS, incubated in 0.1% fetal bovine serum (FBS) for 16 hours and incubated in glucose-free 0.1% FBS-containing medium for up to 4 days in the presence of vehicle or 1 nM Compound C0105. The cells in the entire well were collected by centrifugation. […] The protein concentrations were measured by the Bradford method.
# The cells were homogenized and the obtained homogenates were centrifuged to remove nucleus and mitochondria. […] The level of apoptotic cell death was determined using Western blotting in 50 μg solubilized cell lysates with antibodies against cleaved PARP-1 (Asp^214) and caspase-3 (Asp^175), both at 1:1000 dilution. […] Bands at the relevant molecular masses of Ki67 and PCNA were quantified by densitometric scan. Membranes were stripped, washed 5× in 0.1% PBST (2 minutes each wash) and the actin content analyzed by immunoblotting using monoclonal anti-actin to illustrate even loading.
# [1] = test system: pS2152FLNA, FLNA-associated PTEN and PP2A in melanoma cells; assay: pS2152FLNA and FLNA-associated PTEN and PP2A in anti-FLNA immunoprecipitate (Western blotting); assay type: cell-based, human; conditions: 0.1-5 nM; 4 days
# Description: The effect of Compound C0105 on the levels of pS^2152FLNA and FLNA-associated phosphatases, PTEN and PP2A subclasses was determined in melanoma cells. Cells were treated with vehicle and 0.1-5 nM Compound C0105 for 4 days. Cells were washed, solubilized and the resultant cell lysate was immunoprecipitated with anti-FLNA. The levels of pS^2152FLNA and FLNA-associated phosphatases, PTEN and PP2A subclasses in the anti-FLNA immunoprecipitate were determined by Western blotting. The density of protein bands was quantified by densitometric scanning. […] N=4. **p<0.05, *p<0.01 compared to vehicle (open bars). […]
# (§1) The cell lysates were diluted 5-fold with immunoprecipitation buffer and immunoprecipitated with anti-FLNA, -Akt, -mTOR and -ERK2 as described previously [Talbot et al., J Clin Inv 122(4):1-23 (2012); Wang et al., J Neurosci 32(29):9773-9784 (2012)]. The levels of FLNA linkages, activated phosphorylated Akt (pS^473 and pT^308), phosphorylated mTOR (pS^2448) and phosphorylated ERK2 (pY/pT) were determined in anti-FLNA, -Akt, -mTOR and -ERK2 immunoprecipitates by Western blotting with appropriate antibodies directed against PTEN, PP2A, K-RAS, ras-GAP (FLNA linkages), pS^473Akt, pT^308Akt, pS^2448mTOR and pY/pT ERK2 (activation of Akt, mTOR and ERK2).
# [2] = test system: non-small cell lung cancer cell lines; assay: Glucose utilization; assay type: cell-based, human; conditions: data not shown
# Description: To determine the effect of Compound C0105 on glucose utilization, the cancer and primary normal cells were plated extremely thinly (10%). Once cells attached, Compound C0105 was added at 0.1, 0.5, 1 or 5 nM in the medium twice daily (6 hours apart) for 4 days. The cells were serum-deprived (glucose deprived) for 2 hours. Cells were then rinsed with 1 ml PBS and glucose uptake was assessed by contacting the cells with [^3H]glucose (0.01 uCi/l ml) in Kreb's Ringer for 2 hours. Cells were then rinsed with 1 ml PBS 3 times, scraped off and their glucose content counted by liquid scintillation spectrophotometry.
# . Primary lung fibroblast cells were used as control, non-cancerous cells to illustrate the difference in effects observed (FIG. 1C, FIGS. 1H-1I).
# [3] = test system: FLNA-bound K-ras and ras-GAP in lung fibroblasts; assay: FLNA-bound K-ras and ras-GAP (immunoprecipitation, Western blotting); assay type: cell-based, human
# Description: Thus, melanoma, two different pancreatic cancerous cell lines (MiaPaCa2 and BxPc3) and a glioblastoma cell line (U87) were treated with zero (vehicle), 0.1, 0.5, 1 and 5 nM Compound C0105 as previously discussed, and FLNA-bound K-ras and ras-GAP were immunoprecipitated, separated by Western blotting and the blot densities determined as discussed previously.
# To study the effect of Compound C0105 on pS^2152FLNA levels, FLNA linkages to key regulators including protein phosphatases as well as activated Akt (pS^473-, pT^308-Akt), mTOR (pS^2442mTOR) and ERK (pY/pT-ERK) levels, the cancer and normal cells were cultured to approximately 90% confluency and treated with vehicle or varying concentrations of Compound C0105. […]
# as §1, with “ERK2). […]” for “ERK2).”
# more than 65 receptors = assay: Standard binding assay on more than 65 receptors; conditions: 10 μM concentration
smiles,measurement,setting,value
CN1CCC2(CC1)NCC(=O)N2Cc1ccccc1 [Compound C0105],Glucose deprivation-induced cell death by cleaved PARP-1 and caspase-3,glioblastoma cells,attenuates glucose deprivation-induced cell death
same,FLNA-associated PTEN and PP2A levels,[1],increases FLNA-associated PTEN and PP2A levels
same,pS2152FLNA level,[1],reduces pS^2152FLNA
same,Glucose utilization,[2],decreased the elevated glucose utilization
same,FLNA-associated K-ras and ras-GAP,[3],had no effect on fibroblasts
same,Binding to any of more than 65 assayed receptors,more than 65 receptors,no significant binding

# Reference: patent publication US10363239B2, “Method for inhibiting growth of cancer cells” (Pain Therapeutics, Inc., priority 2013, dated 2019)
